Measured values reported in patent US10961187B2, “Substituted N-acetyl-L-cysteine derivatives and related compounds” (Promentis Pharmaceuticals, Inc., priority 2013, dated 2021).

Legend:
[1] = tested on: mixed cortical cell cultures containing glial and neuronal cells; experiment: In vitro thiol experiment: intracellular cysteine levels; format: cell-based, mice; settings: 30 minutes; for intracellular cysteine concentration: raw concentration in collected samples
Description: To further resolve by what process the inhibition of ^14C-cystine uptake is occurring intracellular cysteine levels were determined.
Mixed cortical cell cultures containing glial and neuronal cells were prepared from fetal (15-16 day gestation) mice as previously described. (Lobner D, “Comparison of the LDH and MTT assays for quantifying cell death: validity for neuronal apoptosis?,” J. Neurosci. Methods, 96(2): 147-152 (Mar. 15, 2000)). Dissociated cortical cells were plated on 24-well plates coated with poly-D-lysine and laminin in Eagles' Minimal Essential Medium (MEM, Earle's salts, supplied glutamine-free) supplemented with 5% heat-inactivated horse serum, 5% fetal bovine serum, 2 mM glutamine and glucose (total 21 mM). Cultures were maintained in humidified 5% CO2 incubators at 37° C. Mice were handled in accordance with a protocol approved by our institutional animal care committee and in compliance with the Public Health service Policy on Humane Care and Use of Laboratory Animals.
Mixed cortical cell cultures, 14 days in vitro (this allows for a confluent layer of astrocytes to form and the neurons to generate a complex network of axons and dendrites), were washed into bicarbonate buffered salt solution. After 1 hour, 3, 10, 30, 100 μM of Pro-4047 or Pro-4051 was added and the cells were incubated for 30 or 90 minutes, after which the cells were thoroughly washed and the collected in 250 μL of aqueous mobile phase (50 mM citric acid, 10 mM octanesulfonic acid, pH 2.8) was added, after 10 minutes at 37° C. the cells were scraped from the plates and transferred to 1.5 mL tubes for analysis.
Samples were then sonicated with a Fisher Scientific 60 Sonic Dismembrator. One fraction of this homogenate was analyzed with the Pierce BCA (bicinchoninic acid) method to determine protein concentration. The other fraction was filtered using 3 K molecular weight cutoff, polyethersulfone centrifugal protein filters, and analyzed for thiol content using HPLC (ALF-115 column, 150×1.0 mm, 3 μm C18 [Pro-2023 analysis utilized a Phenomenex Kinetex 2.6 μM, C18, 100 A, 150×2.1 mm and Pro-4047 analysis utilized a Phenomenex Kinetex X-B, C18, 100 A, 2.6 μm, 150×4.4 mm]; mobile phase: 50 mM citric acid, 10 mM octanesulfonic acid, 2% acetonitrile, pH 2.8, 50 μL/min flow rate [Pro-2023 analysis utilized a 100 μL/min flow rate and Pro-4047 analysis utilized 1% acetonitrile and 0.4 mL/min flow rate] with electrochemical detection (Decade II, Au working electrode, Flex Cell HyREF, 0.55V, Antec Leyden, Netherlands [Pro-4047 analysis utilized a Magic Diamond working electrode and 1.8V]).
When the intracellular thiol assay was initiated, all data was normalized to protein concentration. […] The data presented herein represents the raw cysteine concentrations in the collected samples. […] Pro-4006 at 10 μM increases intracellular cysteine concentration to 0.07 μM at 30 minutes (approximately 3.5 times that of the control; FIG. 11). […] Pro-4047 at 300 μM increases intracellular cysteine concentration to 0.74 μM at 90 minutes (approximately 4.9 times that of the control; FIG. 13). […] Thus, based on the 3 in vitro experiments it is apparent that Pro-2023, Pro-4006, Pro-4011, Pro-4047, Pro-4051 and Pro-4051a behave as effective cysteine prodrugs.

System xc− [2] = target: T1, System xc− (Homo sapiens, UniProt Q9UPY5); experiment: 3H-glutamate release from human glial cells from brain astrocytoma (1321N1); format: cell-based; settings: 1321N1 cells
T1 construct: in vitro culture system of human glial cells from brain astrocytoma (1321N1); endogenous in cells; host or cells: 1321N1 human astrocytoma cells
T1 sequence (Q9UPY5 1-501): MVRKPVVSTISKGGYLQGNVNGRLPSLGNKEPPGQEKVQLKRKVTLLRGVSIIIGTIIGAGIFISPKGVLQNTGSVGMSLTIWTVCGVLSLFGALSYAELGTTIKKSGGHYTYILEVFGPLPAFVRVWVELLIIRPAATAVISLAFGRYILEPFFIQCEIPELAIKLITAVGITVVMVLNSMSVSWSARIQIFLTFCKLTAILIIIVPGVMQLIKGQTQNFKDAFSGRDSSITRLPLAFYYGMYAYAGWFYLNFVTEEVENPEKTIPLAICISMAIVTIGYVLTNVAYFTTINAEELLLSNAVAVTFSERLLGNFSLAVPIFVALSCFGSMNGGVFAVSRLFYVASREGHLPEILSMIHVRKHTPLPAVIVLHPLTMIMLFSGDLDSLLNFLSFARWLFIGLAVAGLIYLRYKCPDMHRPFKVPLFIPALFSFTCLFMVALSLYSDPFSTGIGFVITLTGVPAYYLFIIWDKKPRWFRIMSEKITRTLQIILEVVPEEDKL
T1 sequence (P08195 1-529 partner): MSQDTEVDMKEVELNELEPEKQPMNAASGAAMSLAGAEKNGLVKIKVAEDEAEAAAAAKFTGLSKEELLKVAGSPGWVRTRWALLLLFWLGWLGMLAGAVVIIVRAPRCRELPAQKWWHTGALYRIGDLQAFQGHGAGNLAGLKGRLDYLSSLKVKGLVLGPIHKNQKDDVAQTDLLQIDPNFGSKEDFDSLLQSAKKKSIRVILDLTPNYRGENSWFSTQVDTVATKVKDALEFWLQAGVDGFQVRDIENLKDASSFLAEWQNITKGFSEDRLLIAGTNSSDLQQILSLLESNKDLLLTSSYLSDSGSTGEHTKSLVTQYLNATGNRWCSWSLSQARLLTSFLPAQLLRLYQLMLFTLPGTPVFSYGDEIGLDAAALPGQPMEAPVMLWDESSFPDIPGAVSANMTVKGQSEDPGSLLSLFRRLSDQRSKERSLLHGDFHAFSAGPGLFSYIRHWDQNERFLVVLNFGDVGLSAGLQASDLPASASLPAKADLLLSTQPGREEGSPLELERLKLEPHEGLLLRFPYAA
Description: This assay also uses the cell culture system of human glial cells from brain astrocytoma (1321N1) described above. Initially, cells are washed with HBBSS, and ^3H-glutamate is added (PerkinElmer: 1 mCi/mL stock solution is diluted (30 μL+500 HBBSS) and 10 μL of diluted radiolabel is added to each well). Following a 1 hour incubation to load the cells with the labeled glutamate, the cells are washed again with HBBSS, and the drug is added. At 30, 90, and 180 minutes, 50 μL of extracellular media is sampled from each well and is measured using a Beckman LS 6500 scintillation counter.

System xc− [3] = target: T1, System xc−; experiment: 14C-cystine uptake in human glial cells from brain astrocytoma (1321N1); format: cell-based; settings: 1321N1 cells
Description: The goal of these experiments was to determine ^14C-cystine uptake.
The screening of compounds was performed using an in vitro culture system of human glial cells from brain astrocytoma (1321N1). Cells were plated on 24 well plates coated with poly-D-lysine and laminin and grown in a balanced salt solution supplemented with 5% heat inactivated horse serum, 5% fetal bovine serum, 2 mM glutamine and glucose (total 21 mM). Cultures were maintained in humidified 5% CO2 incubators at 37° C. for 3-4 days before experiments were performed, at this time the cultures has formed a single confluent layer. For experiments, cultures were washed 3 times into a Na-free HEPES and HCO3^− buffered balanced salt solution. After 1 hour, the test compounds are added. Following a three hour incubation, ^14C-cystine (0.025 mCi/mL) was then added for 20 minutes. Following the ^14C-cystine exposure, cultures were washed 3 times with ice cold HEPES buffered saline solution and dissolved in 250 μl sodium dodecyl sulfate (0.1%). An aliquot (200 μl) was removed and added to scintillation fluid for counting. Values were normalized to ^14C-cystine uptake in untreated controls on the same experimental plate.

Rats = experiment: Elevated-plus maze; format: in vivo; settings: 10 mg/kg PO
Description: Rats were tested in a standard elevated plus maze; testing occurred in a dimly illuminated room using only two lights mounted over the maze. Animals were allowed to habituate to the room for at least one hour prior to treatment. One hour prior to testing, rats received a compound of the present invention (0-30 mg/kg, P.O.). For testing, the rat was placed in the elevated plus maze for five minutes, alternating the starting position between facing an open arm and facing a closed arm. The session was recorded and an observer blind to treatment recorded the number of explorations, entries and time spent in the open arm. Explorations were defined as the rat placing two feet into an open arm without fully entering said arm. Entries were defined as the rat placing all four feet in an open arm. Time of entry in the open arm was recorded from the time the rat placed four feet in the open arm until two of the rats' feet entered the open square.

## CC(=O)N[C@@H](CSC(C)(C)c1ccccc1)C(N)=O [Pro-4006, (2R)-2-Acetamido-3-[(2-phenylpropan-2-yl)sulfanyl]propanamide]
[1]; 10 μM compound
  intracellular cysteine, times that of the control: approximately 3.5 times
  intracellular cysteine concentration: 0.07 µM
System xc− [2]; 30 μM, at 30 minutes
  increase in 3H-glutamate release: 35%
System xc− [3]; 30 μM (most effective concentration), three hour incubation
  decrease in 14C-cystine uptake: approximately 45%

## O=C(SC[C@H]1C(=O)NCC(=O)N1Cc1ccccc1)c1ccccc1 [Pro-4011, (6R)-6-[(benzoylsulfanyl)methyl]-1-benzylpiperazine-2,5-dione]
[1]; 10 μM compound
  intracellular cysteine, times that of the control: approximately 1.16 times
  intracellular cysteine concentration: 0.138 µM
System xc− [2]; 100 μM, at 3 hours
  increase in 3H-glutamate release: 75%
System xc− [3]; 100 μM (most effective concentration), three hour incubation
  increase in 14C-cystine uptake: approximately 75%

## CC(=O)N[C@@H](CSC(=O)c1ccc(C)cc1)C(N)=O [Pro-4051a, (2R)-2-acetamido-3-(4-methylbenzoylsulfanyl)propanamide]
[1]; 100 μM compound
  intracellular cysteine, times that of the control: approximately 3 times
  intracellular cysteine concentration: 0.21 µM
Rats
  increase of time on the open arms over control: not a significant increase over control
Rats; one hour prior to testing, five minute session
  time spent on the open arms: around 22 seconds
System xc− [2]; 1000 μM, at 30 minutes
  increase in 3H-glutamate release: approximately 180%
System xc− [3]; 3 hour incubation
  inhibition of 14C-cystine uptake (in words): did not produce a substantial inhibition
